Measurements as given in ChEMBL document CHEMBL3588844, “Discovery of A-893, A New Cell-Active Benzoxazinone Inhibitor of Lysine Methyltransferase SMYD2” (ACS Med Chem Lett, 2015).
Values belong to the compound of their own block, whether it stands above or below them. Calls of active or inactive are those of the source. No cut-off for these calls is given here.

Experiments:
[1] = target: N-lysine methyltransferase SMYD2 (Homo sapiens, UniProt Q9NRG4)
[2] = target: DNMT3A2/3L complex (Homo sapiens) (UniProt Q9Y6K1+Q9UJW3); assay: Inhibition of DNMT3A/3L (unknown origin) at 1 uM after 1 hr by filter-based assay; assay type: protein-complex assay
[3] = target: Histone-lysine N-methyltransferase EHMT2 (Homo sapiens) (UniProt Q96KQ7); assay: Inhibition of G9a (unknown origin) assessed as incorporation of tritium labeled methyl group from [3H]-SAM to substrate at 1 uM after 1 hr by scintillation proximity assay relative to control
[4] = target: Histone-lysine N-methyltransferase EHMT1 (Homo sapiens) (UniProt Q9H9B1); assay: Inhibition of EHMT1 (unknown origin) assessed as incorporation of tritium labeled methyl group from [3H]-SAM to substrate at 1 uM after 1 hr by scintillation proximity assay relative to control
[5] = target: Histone-lysine N-methyltransferase SUV39H2 (Homo sapiens) (UniProt Q9H5I1); assay: Inhibition of SUV39H2 (unknown origin) assessed as incorporation of tritium labeled methyl group from [3H]-SAM to substrate at 1 uM after 1 hr by scintillation proximity assay relative to control
[6] = target: Histone-lysine N-methyltransferase SETDB1 (Homo sapiens) (UniProt Q15047); assay: Inhibition of SETDB1 (unknown origin) assessed as incorporation of tritium labeled methyl group from [3H]-SAM to substrate at 1 uM after 1 hr by scintillation proximity assay relative to control
[7] = target: Histone-lysine N-methyltransferase SETD7 (Homo sapiens) (UniProt Q8WTS6); assay: Inhibition of SETD7 (unknown origin) assessed as incorporation of tritium labeled methyl group from [3H]-SAM to substrate at 1 uM after 1 hr by scintillation proximity assay relative to control
[8] = target: N-lysine methyltransferase KMT5A (Homo sapiens) (UniProt Q9NQR1); assay: Inhibition of SETD8 (unknown origin) assessed as incorporation of tritium labeled methyl group from [3H]-SAM to substrate at 1 uM after 1 hr by scintillation proximity assay relative to control
[9] = target: Histone-lysine N-methyltransferase KMT5B (Homo sapiens) (UniProt Q4FZB7); assay: Inhibition of SUV420H1 (unknown origin) assessed as incorporation of tritium labeled methyl group from [3H]-SAM to substrate at 1 uM after 1 hr by scintillation proximity assay relative to control
[10] = target: Histone-lysine N-methyltransferase KMT5C (Homo sapiens) (UniProt Q86Y97); assay: Inhibition of SUV420H2 (unknown origin) at 1 uM after 1 hr by filter-based assay
[11] = target: Histone-lysine N-methyltransferase 2A (Homo sapiens) (UniProt Q03164); assay: Inhibition of MLL1 trimeric complex (unknown origin) assessed as incorporation of tritium labeled methyl group from [3H]-SAM to substrate at 1 uM after 1 hr by scintillation proximity assay relative to control
[12] = target: Histone-lysine N-methyltransferase EZH1 (Homo sapiens) (UniProt Q92800); assay: Inhibition of EZH1 pentameric complex (unknown origin) assessed as incorporation of tritium labeled methyl group from [3H]-SAM to substrate at 1 uM after 1 hr by scintillation proximity assay relative to control
[13] = target: Histone-lysine N-methyltransferase EZH2 (Homo sapiens) (UniProt Q15910); assay: Inhibition of EZH2 trimeric complex (unknown origin) assessed as incorporation of tritium labeled methyl group from [3H]-SAM to substrate at 1 uM after 1 hr by scintillation proximity assay relative to control
[14] = target: Histone-lysine N-methyltransferase SETD2 (Homo sapiens) (UniProt Q9BYW2); assay: Inhibition of SETD2 (unknown origin) assessed as incorporation of tritium labeled methyl group from [3H]-SAM to substrate at 1 uM after 1 hr by scintillation proximity assay relative to control
[15] = target: Histone-lysine N-methyltransferase PRDM9 (Homo sapiens) (UniProt Q9NQV7); assay: Inhibition of PRDM9 (unknown origin) assessed as incorporation of tritium labeled methyl group from [3H]-SAM to substrate at 1 uM after 1 hr by scintillation proximity assay relative to control
[16] = target: Protein arginine N-methyltransferase 1 (Homo sapiens) (UniProt Q99873); assay: Inhibition of PRMT1 (unknown origin) assessed as incorporation of tritium labeled methyl group from [3H]-SAM to substrate at 1 uM after 1 hr by scintillation proximity assay relative to control
[17] = target: Protein arginine N-methyltransferase 3 (Homo sapiens) (UniProt O60678); assay: Inhibition of PRMT3 (unknown origin) assessed as incorporation of tritium labeled methyl group from [3H]-SAM to substrate at 1 uM after 1 hr by scintillation proximity assay relative to control
[18] = target: PRMT5/MEP50 complex (Homo sapiens) (UniProt O14744+Q9BQA1); assay: Inhibition of PRMT5-MEP50 complex (unknown origin) assessed as incorporation of tritium labeled methyl group from [3H]-SAM to substrate at 1 uM after 1 hr by scintillation proximity assay relative to control; assay type: protein-complex assay
[19] = target: Protein arginine N-methyltransferase 6 (Homo sapiens) (UniProt Q96LA8); assay: Inhibition of PRMT6 (unknown origin) assessed as incorporation of tritium labeled methyl group from [3H]-SAM to substrate at 1 uM after 1 hr by scintillation proximity assay relative to control
[20] = target: Protein arginine N-methyltransferase 7 (Homo sapiens) (UniProt Q9NVM4); assay: Inhibition of PRMT7 (unknown origin) assessed as incorporation of tritium labeled methyl group from [3H]-SAM to substrate at 1 uM after 1 hr by scintillation proximity assay relative to control
[21] = target: Protein arginine N-methyltransferase 8 (Homo sapiens) (UniProt Q9NR22); assay: Inhibition of PRMT8 (unknown origin) assessed as incorporation of tritium labeled methyl group from [3H]-SAM to substrate at 1 uM after 1 hr by scintillation proximity assay relative to control
[22] = target: Histone-lysine N-methyltransferase, H3 lysine-36 specific (Homo sapiens) (UniProt Q96L73); assay: Inhibition of NSD1 (unknown origin) at 1 uM after 1 hr by filter-based assay
[23] = target: Histone-lysine N-methyltransferase NSD2 (Homo sapiens) (UniProt O96028); assay: Inhibition of NSD2 (unknown origin) at 1 uM after 1 hr by filter-based assay
[24] = target: Histone-lysine N-methyltransferase NSD3 (Homo sapiens) (UniProt Q9BZ95); assay: Inhibition of NSD3 (unknown origin) at 1 uM after 1 hr by filter-based assay
[25] = target: Histone-lysine N-methyltransferase ASH1L (Homo sapiens) (UniProt Q9NR48); assay: Inhibition of ASH1L (unknown origin) at 1 uM after 1 hr by filter-based assay
[26] = target: Histone-lysine N-methyltransferase, H3 lysine-79 specific (Homo sapiens) (UniProt Q8TEK3); assay: Inhibition of DOT1L (unknown origin) at 1 uM after 1 hr by filter-based assay
[27] = target: DNA (cytosine-5)-methyltransferase 1 (Homo sapiens) (UniProt P26358); assay: Inhibition of DNMT1 (unknown origin) assessed as incorporation of tritium labeled methyl group from [3H]-SAM to dsDNA substrate at 1 uM after 1 hr by scintillation proximity assay relative to control
[28] = target: DNMT3B-DNMT3L complex (Homo sapiens) (UniProt Q9UBC3+Q9UJW3); assay: Inhibition of DNMT3B/3L (unknown origin) at 1 uM after 1 hr by filter-based assay; assay type: protein-complex assay
[29] = target: RNA 5'-monophosphate methyltransferase (Homo sapiens) (UniProt Q7Z5W3); assay: Inhibition of BCDIN3D (unknown origin) assessed as incorporation of tritium labeled methyl group from [3H]-SAM to substrate at 1 uM after 1 hr by scintillation proximity assay relative to control
[30] = target: Protein N-lysine methyltransferase METTL21A (Homo sapiens) (UniProt Q8WXB1); assay: Inhibition of METTL21A (unknown origin) assessed as incorporation of tritium labeled methyl group from [3H]-SAM to substrate at 1 uM after 1 hr by scintillation proximity assay relative to control
[31] = target: Protein N-lysine methyltransferase METTL21D (Homo sapiens) (UniProt Q9H867); assay: Inhibition of METTL21D (unknown origin) assessed as incorporation of tritium labeled methyl group from [3H]-SAM to substrate at 1 uM after 1 hr by scintillation proximity assay relative to control
[32] = target: Histone-lysine N-methyltransferase SMYD3 (Homo sapiens) (UniProt Q9H7B4); assay: Inhibition of SMYD3 (unknown origin) assessed as incorporation of tritium labeled methyl group from [3H]-SAM to substrate at 1 uM after 1 hr by scintillation proximity assay relative to control
[33] = target: Protein arginine N-methyltransferase 3 (Homo sapiens) (UniProt O60678); assay: Inhibition of PRMT3 (unknown origin) assessed as incorporation of tritium labeled methyl group from [3H]-SAM to substrate at 10 to 50 uM after 1 hr by scintillation proximity assay relative to control
[34] = target: Protein arginine N-methyltransferase 7 (Homo sapiens) (UniProt Q9NVM4); assay: Inhibition of PRMT7 (unknown origin) assessed as incorporation of tritium labeled methyl group from [3H]-SAM to substrate at 10 to 50 uM after 1 hr by scintillation proximity assay relative to control
[35] = target: Histone-lysine N-methyltransferase SUV39H2 (Homo sapiens) (UniProt Q9H5I1); assay: Inhibition of SUV39H2 (unknown origin) assessed as incorporation of tritium labeled methyl group from [3H]-SAM to substrate at 10 to 50 uM after 1 hr by scintillation proximity assay relative to control
[36] = target: Histone-lysine N-methyltransferase SMYD3 (Homo sapiens) (UniProt Q9H7B4); assay: Inhibition of SMYD3 (unknown origin) assessed as incorporation of tritium labeled methyl group from [3H]-SAM to substrate at 10 to 50 uM after 1 hr by scintillation proximity assay relative to control
A549 [37] = assay: Effect on p53 protein level in human A549 cells at 10 uM after 18 hrs; assay type: functional, cell-based
A549 [38] = assay: Upregulation of p53 protein level in human A549 cells at 10 uM after 18 hrs relative to control; assay type: functional

Chain of N-lysine methyltransferase SMYD2 (Q9NRG4 whole entry): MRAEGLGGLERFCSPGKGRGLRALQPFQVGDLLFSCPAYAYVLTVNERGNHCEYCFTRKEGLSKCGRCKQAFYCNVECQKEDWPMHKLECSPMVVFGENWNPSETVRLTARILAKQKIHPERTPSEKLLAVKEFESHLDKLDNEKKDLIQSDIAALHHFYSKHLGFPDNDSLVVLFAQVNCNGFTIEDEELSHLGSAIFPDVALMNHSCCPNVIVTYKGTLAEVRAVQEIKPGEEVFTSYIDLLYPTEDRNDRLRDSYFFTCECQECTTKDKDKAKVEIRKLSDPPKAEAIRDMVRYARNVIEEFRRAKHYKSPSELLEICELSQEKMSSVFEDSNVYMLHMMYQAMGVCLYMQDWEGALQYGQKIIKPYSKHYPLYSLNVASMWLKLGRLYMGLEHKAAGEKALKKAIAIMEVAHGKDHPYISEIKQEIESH
Chain of Protein arginine N-methyltransferase 3 (Homo sapiens) (O60678 2-531 limits assumed): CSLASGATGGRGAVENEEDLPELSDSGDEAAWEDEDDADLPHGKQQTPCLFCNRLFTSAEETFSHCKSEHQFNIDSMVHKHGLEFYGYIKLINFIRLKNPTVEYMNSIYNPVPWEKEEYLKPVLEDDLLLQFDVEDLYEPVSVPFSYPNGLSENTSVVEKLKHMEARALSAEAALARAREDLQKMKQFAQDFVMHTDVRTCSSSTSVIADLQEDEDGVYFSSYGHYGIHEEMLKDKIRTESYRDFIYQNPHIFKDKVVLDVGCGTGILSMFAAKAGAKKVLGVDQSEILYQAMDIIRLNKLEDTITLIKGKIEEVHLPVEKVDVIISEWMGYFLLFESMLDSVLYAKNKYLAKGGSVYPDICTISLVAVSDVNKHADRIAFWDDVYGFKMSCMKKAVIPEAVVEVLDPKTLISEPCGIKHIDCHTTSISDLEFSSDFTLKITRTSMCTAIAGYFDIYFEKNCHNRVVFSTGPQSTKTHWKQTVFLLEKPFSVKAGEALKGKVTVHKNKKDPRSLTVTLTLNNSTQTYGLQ
Chain of Histone-lysine N-methyltransferase SUV39H2 (Homo sapiens) (Q9H5I1 whole entry): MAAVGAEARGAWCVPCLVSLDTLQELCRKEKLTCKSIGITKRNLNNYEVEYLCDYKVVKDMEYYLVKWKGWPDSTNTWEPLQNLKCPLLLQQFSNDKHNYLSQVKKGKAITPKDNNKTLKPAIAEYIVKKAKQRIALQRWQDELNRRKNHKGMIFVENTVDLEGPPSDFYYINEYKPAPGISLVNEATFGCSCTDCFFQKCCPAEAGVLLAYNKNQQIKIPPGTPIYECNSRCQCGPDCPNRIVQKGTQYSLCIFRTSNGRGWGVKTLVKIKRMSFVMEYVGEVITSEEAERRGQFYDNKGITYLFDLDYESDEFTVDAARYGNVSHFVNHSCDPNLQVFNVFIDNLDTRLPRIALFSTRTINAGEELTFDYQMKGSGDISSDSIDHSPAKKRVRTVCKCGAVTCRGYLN
Chain of Protein arginine N-methyltransferase 7 (Homo sapiens) (Q9NVM4 whole entry): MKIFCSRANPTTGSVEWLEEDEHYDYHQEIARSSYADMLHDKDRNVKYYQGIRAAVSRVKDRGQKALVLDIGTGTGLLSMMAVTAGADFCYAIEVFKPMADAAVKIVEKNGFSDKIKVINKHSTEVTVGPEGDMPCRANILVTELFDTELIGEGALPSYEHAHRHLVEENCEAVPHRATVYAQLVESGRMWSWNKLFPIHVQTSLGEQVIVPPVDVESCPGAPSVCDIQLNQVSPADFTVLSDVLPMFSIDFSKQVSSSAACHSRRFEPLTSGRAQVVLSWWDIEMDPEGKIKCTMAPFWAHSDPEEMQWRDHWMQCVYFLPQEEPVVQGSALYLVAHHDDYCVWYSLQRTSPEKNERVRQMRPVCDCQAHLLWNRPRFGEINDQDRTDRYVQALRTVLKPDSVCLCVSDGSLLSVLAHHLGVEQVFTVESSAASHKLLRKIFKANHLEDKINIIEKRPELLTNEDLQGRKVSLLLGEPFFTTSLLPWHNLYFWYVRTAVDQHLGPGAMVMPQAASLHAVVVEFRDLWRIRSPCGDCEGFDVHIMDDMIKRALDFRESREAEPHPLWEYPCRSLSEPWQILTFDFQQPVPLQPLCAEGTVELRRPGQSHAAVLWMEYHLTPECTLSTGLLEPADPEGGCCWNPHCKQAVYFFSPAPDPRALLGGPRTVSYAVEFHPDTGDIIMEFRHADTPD
Chain of Histone-lysine N-methyltransferase SMYD3 (Homo sapiens) (Q9H7B4 whole entry): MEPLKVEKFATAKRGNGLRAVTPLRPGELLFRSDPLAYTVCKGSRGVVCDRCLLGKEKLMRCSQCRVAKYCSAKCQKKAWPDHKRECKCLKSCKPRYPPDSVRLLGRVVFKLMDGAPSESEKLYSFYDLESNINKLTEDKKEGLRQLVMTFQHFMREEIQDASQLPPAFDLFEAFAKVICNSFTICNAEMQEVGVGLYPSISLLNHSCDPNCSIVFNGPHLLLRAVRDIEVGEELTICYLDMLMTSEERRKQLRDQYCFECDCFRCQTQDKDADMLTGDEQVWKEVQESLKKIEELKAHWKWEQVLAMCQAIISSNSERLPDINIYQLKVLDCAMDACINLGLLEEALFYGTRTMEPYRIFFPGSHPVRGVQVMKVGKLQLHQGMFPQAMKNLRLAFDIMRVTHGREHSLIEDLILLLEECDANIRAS
Chain of Histone-lysine N-methyltransferase EZH1 (Homo sapiens) (Q92800 whole entry): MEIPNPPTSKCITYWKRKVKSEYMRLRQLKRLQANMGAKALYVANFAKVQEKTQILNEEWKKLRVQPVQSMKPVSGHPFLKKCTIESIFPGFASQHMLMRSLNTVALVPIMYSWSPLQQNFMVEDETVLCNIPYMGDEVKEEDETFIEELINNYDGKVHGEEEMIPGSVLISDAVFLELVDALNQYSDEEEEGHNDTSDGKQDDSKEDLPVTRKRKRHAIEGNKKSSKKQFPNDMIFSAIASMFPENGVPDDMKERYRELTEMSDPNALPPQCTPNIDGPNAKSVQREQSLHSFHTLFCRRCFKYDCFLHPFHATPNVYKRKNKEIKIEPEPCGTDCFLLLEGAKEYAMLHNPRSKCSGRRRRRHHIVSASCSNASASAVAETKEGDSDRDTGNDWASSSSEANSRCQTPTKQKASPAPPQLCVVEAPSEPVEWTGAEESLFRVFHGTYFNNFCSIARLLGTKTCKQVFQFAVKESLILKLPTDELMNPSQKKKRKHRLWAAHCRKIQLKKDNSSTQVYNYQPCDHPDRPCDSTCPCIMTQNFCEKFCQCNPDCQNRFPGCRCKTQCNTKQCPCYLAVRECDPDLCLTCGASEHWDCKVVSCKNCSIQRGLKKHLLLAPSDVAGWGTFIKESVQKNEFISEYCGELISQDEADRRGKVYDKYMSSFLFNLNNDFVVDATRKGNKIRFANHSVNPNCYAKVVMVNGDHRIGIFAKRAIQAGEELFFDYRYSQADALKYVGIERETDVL
Chain of N-lysine methyltransferase KMT5A (Homo sapiens) (Q9NQR1 whole entry): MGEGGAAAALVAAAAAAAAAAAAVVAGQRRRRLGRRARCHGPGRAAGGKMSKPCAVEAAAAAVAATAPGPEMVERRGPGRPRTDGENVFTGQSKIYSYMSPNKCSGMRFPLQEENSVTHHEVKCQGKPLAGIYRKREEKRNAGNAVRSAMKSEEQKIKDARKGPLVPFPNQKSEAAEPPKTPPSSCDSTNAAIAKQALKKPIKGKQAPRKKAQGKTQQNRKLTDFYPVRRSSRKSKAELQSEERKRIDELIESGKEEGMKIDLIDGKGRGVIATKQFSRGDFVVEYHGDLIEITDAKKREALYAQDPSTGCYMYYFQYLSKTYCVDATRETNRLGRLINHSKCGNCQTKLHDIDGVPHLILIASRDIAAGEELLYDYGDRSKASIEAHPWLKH
Chain of Histone-lysine N-methyltransferase EZH2 (Homo sapiens) (Q15910 whole entry, looked up): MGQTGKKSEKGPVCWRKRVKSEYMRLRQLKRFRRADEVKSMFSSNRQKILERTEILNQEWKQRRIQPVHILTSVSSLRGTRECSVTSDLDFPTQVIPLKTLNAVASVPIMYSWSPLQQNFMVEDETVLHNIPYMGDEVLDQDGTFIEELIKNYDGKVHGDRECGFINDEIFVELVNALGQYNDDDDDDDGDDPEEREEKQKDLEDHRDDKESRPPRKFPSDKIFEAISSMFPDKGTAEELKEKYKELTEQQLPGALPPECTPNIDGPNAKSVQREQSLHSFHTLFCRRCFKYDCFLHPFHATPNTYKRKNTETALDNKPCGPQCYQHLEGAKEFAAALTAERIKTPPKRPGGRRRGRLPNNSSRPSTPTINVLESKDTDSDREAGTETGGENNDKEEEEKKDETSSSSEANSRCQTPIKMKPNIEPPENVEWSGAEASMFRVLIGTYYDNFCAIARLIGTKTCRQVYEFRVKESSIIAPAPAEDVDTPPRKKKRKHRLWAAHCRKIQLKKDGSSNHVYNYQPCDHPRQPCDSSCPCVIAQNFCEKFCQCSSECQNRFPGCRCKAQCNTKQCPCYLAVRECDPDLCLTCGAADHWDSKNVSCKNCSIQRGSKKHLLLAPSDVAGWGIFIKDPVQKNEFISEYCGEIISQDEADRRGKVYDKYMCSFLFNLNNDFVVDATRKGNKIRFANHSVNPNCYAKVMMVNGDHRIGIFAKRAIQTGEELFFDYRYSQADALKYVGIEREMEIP
Chain of Protein arginine N-methyltransferase 1 (Homo sapiens) (Q99873 whole entry, looked up): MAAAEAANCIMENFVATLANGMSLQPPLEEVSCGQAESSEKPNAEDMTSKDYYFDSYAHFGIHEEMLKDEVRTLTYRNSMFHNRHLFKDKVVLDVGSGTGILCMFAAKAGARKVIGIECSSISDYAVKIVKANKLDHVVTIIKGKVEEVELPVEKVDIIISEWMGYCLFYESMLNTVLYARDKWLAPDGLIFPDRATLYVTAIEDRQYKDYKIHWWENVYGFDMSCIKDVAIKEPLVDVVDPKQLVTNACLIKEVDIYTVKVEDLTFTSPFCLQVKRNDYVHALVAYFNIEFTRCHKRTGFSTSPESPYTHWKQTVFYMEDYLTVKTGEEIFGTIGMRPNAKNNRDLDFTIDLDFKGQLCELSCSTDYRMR
Chain of Protein N-lysine methyltransferase METTL21D (Homo sapiens) (Q9H867 whole entry): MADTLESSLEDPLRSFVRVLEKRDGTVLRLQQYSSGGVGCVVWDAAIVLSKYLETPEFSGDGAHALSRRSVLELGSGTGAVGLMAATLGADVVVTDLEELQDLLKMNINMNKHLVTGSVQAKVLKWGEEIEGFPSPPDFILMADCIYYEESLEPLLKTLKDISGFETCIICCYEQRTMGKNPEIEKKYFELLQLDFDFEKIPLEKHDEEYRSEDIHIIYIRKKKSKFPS

IC50 [1]: 2200 nM
Compound: O=C1COc2c(CCNCCN(C(=O)CCNCCc3ccccc3)C3CCCC3)ccc(O)c2N1

IC50 [1]: 26000 nM
Compound: O=C1COc2c(CCNCCN(C(=O)CCNCCc3ccccc3)C3CCC3)ccc(O)c2N1

inhibition [2]: inactive | inhibition [3]: inactive | inhibition [4]: inactive | inhibition [5]: inactive | inhibition [6]: inactive | inhibition [7]: inactive | inhibition [8]: inactive | inhibition [9]: inactive | inhibition [10]: inactive | inhibition [11]: inactive | inhibition [12]: inactive | inhibition [13]: inactive | inhibition [14]: inactive | inhibition [15]: inactive | inhibition [16]: inactive | inhibition [17]: inactive | inhibition [18]: inactive | inhibition [19]: inactive | inhibition [20]: inactive | inhibition [21]: inactive | inhibition [22]: inactive | inhibition [23]: inactive | inhibition [24]: inactive | inhibition [25]: inactive | inhibition [26]: inactive | inhibition [27]: inactive | inhibition [28]: inactive | inhibition [29]: inactive | inhibition [30]: inactive | inhibition [31]: inactive | inhibition [32]: inactive | inhibition [33]: 65% | inhibition [34]: 65% | inhibition [35]: 65% | inhibition [36]: 65% | IC50 [1]: 2.8 nM
Compound: O=C1COc2c(cccc2[C@@H](O)CNCCN(C(=O)CCNCCc2ccc(Cl)c(Cl)c2)C2CCCCC2)N1
Activity (A549 [37]): inactive

IC50 [1]: 1400 nM
Compound: O=C(CCNCCc1ccc(Cl)c(Cl)c1)N(CCNCCCN1CCCC1)C1CCCCC1

IC50 [1]: 2400 nM
Compound: O=C(CCNCCc1ccc(Cl)c(Cl)c1)N(CCNCCCN1CCCCC1)C1CCCCC1

IC50 [1]: 5000 nM
Compound: O=C(CCNCCc1ccc(Cl)c(Cl)c1)N(CCNCCN1CCCC1)C1CCCCC1

IC50 [1]: 3100 nM
Compound: O=C1COc2c(CCNCCN(C(=O)CCNCc3ccc(Cl)c(Cl)c3)C3CCCCC3)ccc(O)c2N1

IC50 [1]: 230 nM
Compound: O=C1COc2c(CCNCCN(C(=O)CCNCCc3ccc(Cl)c(Cl)c3)C3CCCCC3)ccc(O)c2N1
fold change (FC) (A549 [38]): >3

IC50 [1]: 5.6 nM
Compound: O=C1COc2c(cccc2[C@H](O)CNCCN(C(=O)CCNCCc2ccc(Cl)c(Cl)c2)C2CCCCC2)N1

IC50 [1]: 440 nM
Compound: O=C1COc2c(CCNCCN(C(=O)CCNCCc3ccccc3)C3CCCCC3)ccc(O)c2N1
